In patent publication US4678783A, “Substituted isoquinolinesulfonyl compounds” (Asahi Kasei Kogyo Kabushiki Kaisha, priority 1984, dated 1987):
pEC50: −log10 of the molar value.

Columns and labels:
[1] = system: mesenteric artery of a rabbit; experiment: Relaxation of Mesenteric Artery (KCl-contracted spiral strip); parameters: species or system rabbit of Japanese local variety; settings: Oryctolagus cuniculus; concentration of the hydrochloride attaining 50% of complete relaxation; rabbit mesenteric artery contracted with KCl; read-out: ED50 (the source's name)
Experimental: A rabbit of Japanese local variety weighing about 3 kg was subjected to blood-letting to death. Then, abdomen of the rabbit was dissected to pick up a mesenteric artery. […] Thus, the shrinkage and relaxation of the artery was ready to be measured as a load on the transducer. To the organ bath, KCl was added in an amount which makes the artery shrink at a half length that in 15 to 20 mM aqueous solution. Then, hydrochlorides of the compounds of the present invention were added to the organ bath to observe relaxation effect on the artery.
Effect of the compounds of the present invention on relaxation of mesenteric artery was examined according to the method as mentioned hereinbefore.

[2] = system: male spontaneously hypertensive rats (SHR); experiment: Reduction of Blood Pressure (systolic, tail plethysmographic method, oral); assay type: in vivo, rat (SHR, Wister Kyoto)
Experimental: Male spontaneously hypertensive rats (SHR, Wister Kyoto) weighing 300 to 350 g were used. Systolic blood pressure was measured indirectly by the tail plethysmographic method in conscious SHR, just prior to, and 1, 2, 4 and 6 hours after oral administration of test drugs. Test drugs, dissolved in deionized water, were administered orally in a volume of 10 ml-solution/kg-rat. Reduction in systolic blood pressure (ΔP, mmHg) was calculated by substracting a systolic blood pressure after administration from that just prior to administration.
Effect of the compounds of the present invention on reduction of blood pressure was examined according to the method as mentioned hereinbefore.

SMILES	pEC50 [1]	ΔPmax (maximally reduced blood pressure) ([2]; 50 mg/kg) [mmHg]	ΔPmax (maximally reduced blood pressure) ([2]; 100 mg/kg) [mmHg]
CC1(C)CN(S(=O)(=O)c2cccc3cnccc23)CCCN1 [Compound (6), 1-(5-isoquinolinesulfonyl)-3,3-dimethylhomopiperazine]	5.00		
O=S(=O)(c1cccc2cnccc12)N1CCCNC(c2ccccc2)C1 (stereo not drawn) [Compound (10), 1-(5-isoquinolinesulfonyl)-3-phenylhomopiperazine]	4.92		
CCCC1CNCCN(S(=O)(=O)c2cccc3cnccc23)C1 (stereo not drawn) [Compound (13), 1-(5-isoquinolinesulfonyl)-6-propylhomopiperazine]	4.96		
CCCCCCC1CNCCN(S(=O)(=O)c2cccc3cnccc23)C1 (stereo not drawn) [Compound (16), 1-(5-isoquinolinesulfonyl)-6-hexylhomopiperazine]	4.92		
CCN1CCCN(S(=O)(=O)c2cccc3cnccc23)CC1 [Compound (20), 1-(5-isoquinolinesulfonyl)-4-ethylhomopiperazine]	4.96		
CCCCN1CCCN(S(=O)(=O)c2cccc3cnccc23)CC1 [Compound (22), 1-(5-isoquinolinesulfonyl)-4-butylhomopiperazine]	4.89		
CCCCCCN1CCCN(S(=O)(=O)c2cccc3cnccc23)CC1 [Compound (23), 1-(5-isoquinolinesulfonyl)-4-hexylhomopiperazine]	4.92		
CC(C)C(N)CNS(=O)(=O)c1cccc2c(Cl)nccc12 (stereo not drawn) [Compound (28), N-(2-amino-3-methylbutyl)-1-chloro-5-isoquinolinesulfonamide]	5.00	58	
CCCCN(CCCC)CCCNS(=O)(=O)c1cccc2c(Cl)nccc12 [Compound (29), N-(3-di-n-butylaminopropyl)-1-chloro-5-isoquinolinesulfonamide]	4.96	43	
CN(CCNS(=O)(=O)c1cccc2c(Cl)nccc12)C1CCCCC1 [Compound (30), N-[2-(N-cyclohexyl-N-methylamino)ethyl]-1-chloro-5-isoquinolinesulfonamide]	4.89	54	
CC(C)C(CNS(=O)(=O)c1cccc2c(Cl)nccc12)NC(=N)N (stereo not drawn) [Compound (35), N-(2-guanidino-3-methylbutyl)-1-chloro-5-isoquinolinesulfonamide]	5.10		33
CC(CCNS(=O)(=O)c1cccc2c(Cl)nccc12)CNC(=N)N (stereo not drawn) [Compound (37), N-(4-guanidino-3-methylbutyl)-1-chloro-5-isoquinolinesulfonamide]	4.96		31
CC1CN(S(=O)(=O)c2cccc3c(Cl)nccc23)CCN1 (stereo not drawn) [Compound (38), 1-(1-chloro-5-isoquinolinesulfonyl)-3-methylpiperazine]	4.77		45
CCC1CN(S(=O)(=O)c2cccc3c(Cl)nccc23)CCN1 (stereo not drawn) [Compound (39), 1-(1-chloro-5-isoquinolinesulfonyl)-3-ethylpiperazine]	4.74		48
CC(C)CC1CN(S(=O)(=O)c2cccc3c(Cl)nccc23)CCN1 (stereo not drawn) [Compound (40), 1-(1-chloro-5-isoquinolinesulfonyl)-3-isobutylpiperazine]	4.89		51
CC1CN(S(=O)(=O)c2cccc3c(Cl)nccc23)C(C)CN1 (stereo not drawn) [Compound (41), 1-(1-chloro-5-isoquinolinesulfonyl)-2,5-dimethylpiperazine]	4.85		39
CN1CCN(S(=O)(=O)c2cccc3c(Cl)nccc23)CC1 [Compound (42), 1-(1-chloro-5-isoquinolinesulfonyl)-4-methylpiperazine]	4.68		56
NCCNS(=O)(=O)c1cccc2c(O)nccc12 [Compound (47), N-(2-aminoethyl)-1-hydroxy-5-isoquinolinesulfonamide]	5.00	43	
CCNCCNS(=O)(=O)c1cccc2c(Cl)nccc12 [Compound (71), N-(2-ethylaminoethyl)-1-chloro-5-isoquinolinesulfonamide]	4.92		
CCCNCCNS(=O)(=O)c1cccc2c(Cl)nccc12 [Compound (72), N-(2-propylaminoethyl)-1-chloro-5-isoquinolinesulfonamide]	4.96		
CCCCNCCNS(=O)(=O)c1cccc2c(Cl)nccc12 [Compound (73), N-(2-butylaminoethyl)-1-chloro-5-isoquinolinesulfonamide]	5.10		
NCCNS(=O)(=O)c1cccc2cnccc12 [compound 1, reference compound]			31
CC1CN(S(=O)(=O)c2cccc3cnccc23)CCN1 (stereo not drawn) [compound 3, reference compound]			10

Further lines, with some results ahead:

pEC50 [1]	SMILES	ΔPmax (maximally reduced blood pressure) ([2]; 50 mg/kg) [mmHg]	ΔPmax (maximally reduced blood pressure) ([2]; 100 mg/kg) [mmHg]
5.40	CC1CNCCCN1S(=O)(=O)c1cccc2cnccc12 (stereo not drawn) [Compound (2), 1-(5-isoquinolinesulfonyl)-2-methylhomopiperazine]		
5.80	CC1CNCCN(S(=O)(=O)c2cccc3cnccc23)C1 (stereo not drawn) [Compound (4), 1-(5-isoquinolinesulfonyl)-6-methylhomopiperazine]		
5.10	CC1NCCCN(S(=O)(=O)c2cccc3cnccc23)C1C (stereo not drawn) [Compound (5), 1-(5-isoquinolinesulfonyl)-2,3-dimethylhomopiperazine]		
5.22	CCC1CN(S(=O)(=O)c2cccc3cnccc23)CCCN1 (stereo not drawn) [Compound (7), 1-(5-isoquinolinesulfonyl)-3-ethylhomopiperazine]		
5.40	CC(C)CC1CN(S(=O)(=O)c2cccc3cnccc23)CCCN1 (stereo not drawn) [Compound (9), 1-(5-isoquinolinesulfonyl)-3-isobutylhomopiperazine]		
5.52	CCC1CNCCN(S(=O)(=O)c2cccc3cnccc23)C1 (stereo not drawn) [Compound (12), 1-(5-isoquinolinesulfonyl)-6-ethylhomopiperazine]		
5.10	CN1CCCN(S(=O)(=O)c2cccc3cnccc23)CC1 [Compound (19), 1-(5-isoquinolinesulfonyl)-4-methylhomopiperazine]		
5.30	NCCNS(=O)(=O)c1cccc2c(Cl)nccc12 [Compound (24), N-(2-aminoethyl)-1-chloro-5-isoquinolinesulfonamide]	70	
5.15	NCCCCNS(=O)(=O)c1cccc2c(Cl)nccc12 [Compound (25), N-(4-aminobuthyl)-1-chloro-5-isoquinolinesulfonamide]		50
5.40	CC(CN)NS(=O)(=O)c1cccc2c(Cl)nccc12 (stereo not drawn) [Compound (26), N-(2-amino-1-methylethyl)-1-chloro-5-isoquinolinesulfonamide]	53	
5.40	CCCCC(CN)NS(=O)(=O)c1cccc2c(Cl)nccc12 (stereo not drawn) [Compound (27), N-(1-aminomethylpentyl)-1-chloro-5-isoquinolinesulfonamide]	45	
5.40	N=C(N)NCCCCNS(=O)(=O)c1cccc2c(Cl)nccc12 [Compound (32), N-(4-guanidinobutyl)-1-chloro-5-isoquinolinesulfonamide]		38
5.40	CC(CNC(=N)N)NS(=O)(=O)c1cccc2c(Cl)nccc12 (stereo not drawn) [Compound (33), N-(2-guanidino-1-methylethyl)-1-chloro-5-isoquinolinesulfonamide]		51
5.10	CCCCC(CNC(=N)N)NS(=O)(=O)c1cccc2c(Cl)nccc12 (stereo not drawn) [Compound (34), N-(1-guanidinomethylpentyl)-1-chloro-5-isoquinolinesulfonamide]		45
5.15	CC(CNC(=N)N)CNS(=O)(=O)c1cccc2c(Cl)nccc12 (stereo not drawn) [Compound (36), N-(3-guanidino-2-methylpropyl)-1-chloro-5-isoquinolinesulfonamide]		48
5.70	N=C(N)N1CCN(S(=O)(=O)c2cccc3c(Cl)nccc23)CC1 [Compound (43), 1-(1-chloro-5-isoquinolinesulfonyl)-4-amidinopiperazine]		32
5.40	N=C(N)N1CCCN(S(=O)(=O)c2cccc3c(Cl)nccc23)CC1 [Compound (44), 1-(1-chloro-5-isoquinolinesulfonyl)-4-amidinohomopiperazine]		25
5.52	CC1CN(C(=N)N)CCN1S(=O)(=O)c1cccc2c(Cl)nccc12 (stereo not drawn) [Compound (45), 1-(1-chloro-5-isoquinolinesulfonyl)-4-amidino-2-methylpiperazine]		37
5.30	CC1CN(S(=O)(=O)c2cccc3c(Cl)nccc23)C(C)CN1C(=N)N (stereo not drawn) [Compound (46), 1-(1-chloro-5-isoquinolinesulfonyl)-4-amidino-2,5-dimethylpiperazine]		41
6.00	O=S(=O)(c1cccc2c(Cl)nccc12)N1CCNCC1 [Compound (75), 1-(1-chloro-5-isoquinolinesulfonyl)piperazine]		
